Reference: patent US20230201426A1, “GEL COMPOSITION AND PRODUCTION METHOD THEREFOR, AND THREE-DIMENSIONAL TISSUE BODY AND PRODUCTION METHOD THEREFOR” (TOPPAN INC., priority 2020, published 2023)

System: human mammary gland cancer cells (MDA-MB-231)
Experiment: Viability of cells cultured after mixing the cell suspension with the Pt^2+ solution alone
Format: cell-based
Details: final concentration of Pt^2+ 0.05 mM to 0.5 mM

In the case of `[Cl][Pt-2]([Cl])([Cl])[Cl].[K+].[K+]` [Pt^2+ solution, Potassium tetrachloroplatinate(II) (K2PtCl4)], the cytotoxicity is reported as “significant cytotoxicity was not recognized”.
